Experimental data taken from patent US9688596B2, “Synthesis and biological activity of 2-methylene analogs of calcitriol and related compounds” (Wisconsin Alumni Research Foundation, priority 2015, dated 2017).
Entries after “also recorded” stand apart in the source; their conditions may differ.

How the values were obtained:
[1] = test system: human promyelocytic HL-60 cells; assay: HL-60 differentiation (NBT reduction); format: cell-based; conditions: for HL-60 differentiation ED50 Ratio: average ratio of the 1α,25-(OH)2D3 ED50 to the ED50 for the analogue, 50% maturation, NBT reduction; for ability to elicit differentiation of HL-60 cells into monocytes (in words): comparator (2MD)
[2] = biological target: T1, full-length recombinant rat vitamin D receptor (Rattus norvegicus, UniProt P13053); assay: Competitive binding to the vitamin D receptor; conditions: for VDR Binding Ki Ratio: average ratio of the 1α,25-(OH)2D3 Ki to the Ki for the analogue, radiolabeled 1α,25-(OH)2D3 at 1 nM, Kd 0.2 nM; for VDR binding ability (in words): comparator (1 or 3)
T1 sequence (P13053 1-423): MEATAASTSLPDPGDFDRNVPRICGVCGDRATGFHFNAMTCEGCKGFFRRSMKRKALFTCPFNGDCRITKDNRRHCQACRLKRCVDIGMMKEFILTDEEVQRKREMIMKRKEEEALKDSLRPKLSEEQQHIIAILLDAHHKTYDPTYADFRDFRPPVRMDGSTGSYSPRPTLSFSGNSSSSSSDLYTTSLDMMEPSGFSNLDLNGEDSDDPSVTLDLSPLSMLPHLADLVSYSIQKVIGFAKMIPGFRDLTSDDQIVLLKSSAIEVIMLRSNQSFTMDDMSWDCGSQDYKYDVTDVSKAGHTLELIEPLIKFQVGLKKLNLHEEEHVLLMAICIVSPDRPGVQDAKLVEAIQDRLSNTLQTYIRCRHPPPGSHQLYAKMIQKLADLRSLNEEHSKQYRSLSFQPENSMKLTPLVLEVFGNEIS
Experimental: In the first competitive binding assay, the affinity of vitamins to the full-length recombinant rat receptor was evaluated and compared to 1α,25-(OH)2D3 (1) and 2MD (3).
The Ki values are derived from the dose-response curves and represent the inhibition constant when radiolabeled 1α,25-(OH)2D3 is present at 1 nM and a Kd of 0.2 nM is used. The numbers shown in the Table are expressed as the average ratio of the 1α,25-(OH)2D3 Ki to the Ki for the analogue. ^bInduction of differentiation of HL-60 promyelocytes to monocytes by 1α,25-(OH)2D3 (1) and the synthesized vitamin D analogues. Differentiation state was determined by measuring the percentage of cells reducing nitro blue tetrazolium (NBT). The experiment was repeated in duplicate two times. […] The numbers shown in the Table are expressed as the average ratio of the 1α,25-(OH)2D3 ED50 to the ED50 for the analogue. ^cTranscriptional assay in rat osteosarcoma cells stably transfected with a 24-hydroxylase gene reporter plasmid. […] The numbers shown in the Table are expressed as the average ratio of the 1α,25-(OH)2D3 ED50 to the ED50 for the analogue.

[3] = test system: 24-hydroxylase (CYP-24) promoter; assay: 24-hydroxylase transcription (luciferase reporter in rat osteosarcoma cells); format: cell-based; conditions: for 24OHase transcription ED50 Ratio: average ratio of the 1α,25-(OH)2D3 ED50 to the ED50 for the analogue, luciferase activity; for transcriptional potency (in words): compared with 1α,25-(OH)2D3 (1)
From the text: The activity of the synthesized vitamins in inducing transcription of vitamin D target gene was examined using the 24-hydroxylase (CYP-24) promoter.

[4] = earlier work; cited from earlier work
[5] = clinical trial; cited from earlier work
[6] = cited from earlier work
[7] = ovariectomized (OVX) rat; cited from earlier work
[8] = compared with 1; cited from earlier work
bone formation = conditions: cited from earlier work
[9] = Intestinal calcium transport (everted gut sac); format: in vivo, rat; conditions: rats, four consecutive intraperitoneal doses
Experimental: (§1) Male, weanling Sprague-Dawley rats were purchased from Harlan (Indianapolis, Ind.). The animals were group housed and placed on Diet 11 (0.47% Ca)+AEK oil for one week followed by Diet 11 (0.02% Ca)+AEK oil for 3 weeks. The rats were then switched to a diet containing 0.47% Ca^xxiii for one week followed by two weeks on a diet containing 0.02% Ca. Dose administration began during the last week on 0.02% Ca diet. Four consecutive intraperitoneal doses were given approximately 24 hours apart. Twenty four hours after the last dose, blood was collected from the severed neck and the concentration of serum calcium determined as a measure of bone calcium mobilization. The first 10 cm of the intestine was also collected for the intestinal calcium transport analysis using the everted gut sac method.^25

[10] = Bone calcium mobilization (serum calcium); format: in vivo, rat; conditions: rats, four consecutive intraperitoneal doses
Experimental: as §1

[11] = listed as 2-methylene calcitriol

Compound | VDR Binding Ki Ratio [2] | 24OHase transcription ED50 Ratio [3] | VDR binding ability (in words) [2] | transcriptional potency (in words) [3] | transcriptional activity decreased compared with 3 (2MD) ([3]; compared with 3) | affinity to the receptor, higher than natural hormone 1 ([2]; compared to 1α,25-(OH)2D3 (1)) [fold] | HL-60 differentiation ED50 Ratio [1] | calcemic potency / in vivo calcemic activity [4] | bone turnover in postmenopausal women [5] | activity in the intestine compared with 1 [6] | bone formation in OVX rat model [7] | activity in the bone tissue higher than 1 [8] | bone formation in vitro (bone formation) | intestinal calcium transport activity (in words) [9] | intestinal calcium transport activity (in words) [9, 11] | bone calcium mobilization / potency in raising serum calcium (in words) [10] | bone calcium mobilization / potency in raising serum calcium (in words) [10, 11] | ability to elicit differentiation of HL-60 cells into monocytes (in words) [1]
C=C1[C@H](O)CC(=C/C=C2\CCC[C@]3(C)[C@@H]([C@H](C)CCCC(C)(C)O)CC[C@@H]23)C[C@H]1O [Compound 2, reference compound] | 1 | 1 |  |  |  |  | 1 | significantly increased calcemic potency |  |  |  |  |  |  |  |  |  | 
C=C1[C@H](O)CC(=C/C=C2\CCC[C@]3(C)[C@@H](C(C)CCCC(C)(C)O)CC[C@@H]23)C[C@H]1O (stereo partly drawn) [Compound 3, (20S)-1α,25-dihydroxy-2-methylene-19-nor vitamin D3] | 1 | 29 |  |  |  |  | 25 |  | increase bone turnover | similar | strongly stimulate bone formation | ca. 30 times | strongly stimulate bone formation |  |  |  |  | 
C=C1/C(=C\C=C2/CCC[C@]3(C)[C@@H]([C@H](C)CCCC(C)(C)O)CC[C@@H]23)C[C@@H](O)C(=C)[C@@H]1O [Compound 8, 1α,25-dihydroxy-2-methylene-vitamin D3] | 1.4 | 1 | almost as effectively as the natural hormone 1 | same transcriptional potency as 1α,25-(OH)2D3 (1) |  |  | 0.7 |  |  |  |  |  |  | Much higher potency on intestine; also recorded: considerably higher potency; also recorded: more potent than 1 and 3 | more active in intestine | highest potency in raising serum calcium; also recorded: considerably higher potency | almost as active as 2MD in the bone | 
C=C1/C(=C\C=C2/CCC[C@]3(C)[C@@H]([C@@H](C)CCCC(C)(C)O)CC[C@@H]23)C[C@@H](O)C(=C)[C@@H]1O [Compound 9, (20S)-1α,25-dihydroxy-2-methylene-vitamin D3] | 1.1 | 10 | almost identical | most pronounced activity | three |  | 29 |  |  |  |  |  |  | Much higher potency on intestine; also recorded: more potent than 1 and 3 |  | highest potency in raising serum calcium; also recorded: slightly lower than that of 3; also recorded: ca. one order of magnitude higher compared to calcitriol |  | highest ability to elicit cellular differentiation; also recorded: almost identical
C=C1/C(=C/C=C2\CCC[C@]3(C)[C@@H]([C@H](C)CCCC(C)(C)O)CC[C@@H]23)C[C@@H](O)C(=C)[C@@H]1O [Compound 12, (5E)-1α,25-dihydroxy-2-methylene-vitamin D3] | 2.5 | 1 |  | same transcriptional potency as 1α,25-(OH)2D3 (1) |  | 2.5 | 0.4 |  |  |  |  |  |  |  |  | significantly decreased activity in bone |  | 

More lines, main results first:

VDR Binding Ki Ratio [2] | 24OHase transcription ED50 Ratio [3] | VDR binding ability (in words) [2] | transcriptional potency (in words) [3] | transcriptional activity decreased compared with 3 (2MD) ([3]; compared with 3) | affinity to the receptor, higher than natural hormone 1 ([2]; compared to 1α,25-(OH)2D3 (1)) [fold] | Compound | HL-60 differentiation ED50 Ratio [1] | calcemic potency / in vivo calcemic activity [4] | bone turnover in postmenopausal women [5] | activity in the intestine compared with 1 [6] | bone formation in OVX rat model [7] | activity in the bone tissue higher than 1 [8] | bone formation in vitro (bone formation) | intestinal calcium transport activity (in words) [9] | intestinal calcium transport activity (in words) [9, 11] | bone calcium mobilization / potency in raising serum calcium (in words) [10] | bone calcium mobilization / potency in raising serum calcium (in words) [10, 11] | ability to elicit differentiation of HL-60 cells into monocytes (in words) [1]
 |  | decreased by two orders of magnitude | decreased by one order of magnitude |  |  | C=C1/C(=C\C=C2/CCC[C@]3(C)[C@@H]([C@H](C)CCCC(C)C)CC[C@@H]23)C[C@@H](O)C(=C)[C@@H]1O [Compound 10, 1α-hydroxy-2-methylene-vitamin D3] | 0.07 |  |  |  |  |  |  |  |  | less active but still more calcemic than calcitriol; also recorded: Strong calcemic activity |  | 
 |  | decreased by two orders of magnitude | decreased by one order of magnitude |  |  | C=C1/C(=C\C=C2/CCC[C@]3(C)[C@@H]([C@@H](C)CCCC(C)C)CC[C@@H]23)C[C@@H](O)C(=C)[C@@H]1O [Compound 11, (20S)-1α-hydroxy-2-methylene-vitamin D3] | 0.7 |  |  |  |  |  |  |  |  | less active but still more calcemic than calcitriol; also recorded: Strong calcemic activity |  | 
1.1 | 5 | almost identical | most pronounced activity |  |  | C=C1/C(=C/C=C2\CCC[C@]3(C)[C@@H]([C@@H](C)CCCC(C)(C)O)CC[C@@H]23)C[C@@H](O)C(=C)[C@@H]1O [Compound 13, (5E,20S)-1α,25-dihydroxy-2-methylene-vitamin D3] | 20 |  |  |  |  |  |  |  |  | significantly decreased activity in bone |  | highest ability to elicit cellular differentiation; also recorded: almost identical
